According to US9452185B2, “Mesenchymal stem cells and supports for tissue regeneration, repair and reconstruction” (THE TEXAS A&M UNIVERSITY SYSTEM, priority 2009, dated 2016):
“Also recorded” adds a separate entry of the source.

Tests used:
Format in all cases: cell-based, human
Dkk-1 = Dkk-1 secretion by ELISA; settings: 7AIPM in osteogenic culture
Experimental: (§1) ELISAs. ELISA for CXCL6, Dkk-1, GROa, GRO13, and OPG were carried out by using nonbiotinylated polyclonal capture antibodies and biotinylated detection antibodies that were commercially acquired on coated 96-well plates The biotinylated […] antibodies were detected by using horseradish peroxidase-conjugated streptavidin and TMB substrate. ELISA for IL-lb were performed by using commercially acquired kits. In order to characterize the influence of 7AIPM on osteogenic differentiation, hMSC's from two donors were cultured as described elsewhere herein with the addition of varying concentrations of the compound or vehicle to the media. Samples of the media were collected daily for analysis. These samples were analyzed for the presence of OPG and Dkk-1 using ELISA. Alkaline phosphatase activity of the monolayers and cell numbers were measured using a spectrophotometer.

hMSCs = assay: Alkaline phosphatase (ALP) activity of hMSCs in osteogenic media
Experimental: For non-mineralizing osteogenic differentiation, hMSCs were plated in 12-well plates at 100 cells cm^−2. Upon reaching about 70% confluency, the media was changed to osteogenic base media (OBM) containing 50 μg mL^−1 ascorbic acid and 5 mM β-glycerol phosphate and either GW9662 or DMSO. Media was changed every 2 days for 8-10 days following measurement of ALP activity. For this purpose, the monolayer was washed with PBS and then with ALP reaction buffer (100 mM Tris-HCl, pH 9, containing 100 mM KCl and 1 mM MgCl2). One half mL of ALP buffer then 0.5 mL p-nitrophenol phosphate (PNPP) was rapidly added to the wells. ALP activity was measured as the rate of PNPP conversion to p-nitrophenolate by monitoring the absorbance at 405 nm every 30 seconds for 9 minutes using a plate reader. The rates were normalized against cell number and statistically analyzed using one-way analysis of variance (ANOVA) and Tukey post test for multiple comparisons or by Student's t-test, for single, unrelated comparisons.
Early osteogenic differentiation and alkaline phosphatase assays. MSCs were plated in 6-well plates at an initial plating density of 100 cells per cm^2 and cultured in standard complete media for 6 days until semi-confluence (approximately 5,000 cells per cm^2). Osteogenic base media consisting of complete media containing 5 mM β-GP and 50 μg mL^−1 ascorbate-2-phosphate and the appropriate inhibitor or vehicle was then used to induce early osteogenic differentiation. Assays were allowed to proceed for 8-10 days with changes of media every 2 days. ALP assays were performed as previously described (Gunn et al., 2006, Stem Cells 24:986-991).
In order to characterize the influence of 7AIPM on osteogenic differentiation, hMSC's from two donors were cultured as described elsewhere herein with the addition of varying concentrations of the compound or vehicle to the media. Samples of the media were collected daily for analysis. These samples were analyzed for the presence of OPG and Dkk-1 using ELISA. Alkaline phosphatase activity of the monolayers and cell numbers were measured using a spectrophotometer.

osteoprotegerin (OPG) = assay: OPG secretion by ELISA; settings: 7AIPM in osteogenic culture
Experimental: as §1

Row | ALP activity (hMSCs; osteogenic media without dexamethasone, 8 days) | Substance | Dkk-1 concentration (Dkk-1) | ALP activity (hMSCs; MSC monolayers, osteogenic medium with increasing doses, four days) | OPG concentration (osteoprotegerin (OPG))
1 | – | 7-azaindolyl-pyrazinylmaleimide [7AIPM] | decrease | increased; also recorded: biphasic dose dependant effect | increased
2 | attenuated | Dldc-1: Wnt inhibitor added to block canonical Wnt signaling | – | – | –
